Results reported in a melting point compilation (Tetko et al.; mined from patent text by program, amines drawn as free bases though some values may be those of a salt).
Starred links: 1 amine or outer side, 2 acyl side, 3 side chain; linkers in the order of their positions; H or OH if unused. Residues, ends and D or L forms follow the SMILES beside them. Suc = O=C(CCC(=O)[*:2])[*:1]

melting point [°C] | SMILES
58 to 59 | O=[N+]([O-])c1ccccc1Nc1ccccc1F
171 to 172 | COc1ccc(C(=O)Nc2ccc(F)c(F)c2)cc1N
86 to 87 | c1cc(CCCn2ccnc2)cc(OCc2ccc3oc(-c4cccs4)nc3c2)c1
147 to 148 | CC(=NOCc1ccc(OCc2nc(-c3ccccc3)oc2C)cc1)C(=O)O
120 to 124 | COC(=O)CCCc1cc2cc(Cl)ccc2n1S(=O)(=O)c1cccc2cccnc12
142 to 143 | CC(=O)Nc1nc(OS(=O)(=O)c2ccccc2)ncc1F
71 to 72 | O=C(O)C(Cl)CCCCCCCCCCCCC(Cl)C(=O)O (configuration not stated)
227 to 228 | Cc1cc(C(=O)N(C)C)ccc1-c1ccc(C(=O)Nc2ccc(Br)c(N3CCN(C)CC3)c2)cc1
162 to 164 | CONC(=O)C(C)c1ccc2cc(OCc3ccc4ccccc4n3)ccc2c1 (configuration not stated)
186 | NNC(=O)N(O)C1c2ccccc2Oc2ccccc21
191 to 192 | CCn1ncc2c(NCc3ccncc3)c3ccccc3nc21
64 to 65 | Cc1ccccc1COC1COC(c2ccco2)OC1 (configuration not stated)
176 to 178 | CS(=O)(=O)NCCCn1c(CCCOc2ccccc2)nc2c(N)nc3ccccc3c21
91 to 93 | O=C(Cc1ccc(F)cc1)c1ccc(F)cc1
87 to 89 | O=C1CSCc2cc(-c3ccccc3)ccc21
71 to 78 | CC[C@H](C)[C@H](NC[C@@H](N)CS)C(=O)N[C@@H](Cc1ccccc1)C(=O)N[C@@H](CCSC)C(=O)OCc1ccccc1
74 to 77 | COC(=O)COc1cccc(NC(=O)NCC(=O)N(CC(=O)OC(C)(C)C)c2ccccc2C(=O)c2ccccc2)c1
131 to 134 | CCCCCCC[C@H]1C(=O)OC[C@H](NC(=O)c2nccc(OC)c2O)C(=O)O[C@@H](C)[C@@H]1OC(=O)C(C)C
92 to 94 | CN(C)CCOc1cc(O)cc(/C=C/c2ccc(O)cc2)c1
162 to 163 | O=c1ccnc(NCCCN(Cc2ccccc2)c2ccccn2)[nH]1
120 to 121 | Cc1cccc(C)c1NCCN(C)CC(O)COc1cccc2[nH]ncc12 (configuration not stated)
187 to 190 | O=C(Nc1ccc2oc(=O)[nH]c2c1)C(=O)N1CCC(Cc2ccccc2)CC1
77 to 79 | COc1ccc(C(CN(C)C)C2CCCCC2O)cc1 (configuration not stated)
149 to 150 | N#Cc1ccc(NC(=O)c2cccc(OCc3cccc(F)c3F)c2)cc1
196 to 199 | Cc1cc(NC(c2ccccc2)(c2ccccc2)c2ccccc2)no1

melting point [°C] | SMILES
207 to 215 | COc1cc(OCc2ccncc2)ccc1/C=C/c1cc(/C=C/c2cccc3[nH]ccc23)n[nH]1
139 to 140 | CN(CC(=O)O)S(=O)(=O)c1csc2ccccc12
143 to 144 | CCOC(=O)c1c(NCC(=O)c2ccccc2)c2c(Cl)cc(Cl)cc2n1C(=O)OC(C)(C)C
184 to 186 | Cc1ccc(C(=O)NC(NC(=S)Nc2cccnc2)C(C)C)cc1 (configuration not stated)
136 to 137 | CCCn1c(=O)c2[nH]c([C@H](C)c3ccccc3)nc2n(CCC)c1=O
125 to 130 | O=C(Nc1ccccc1)Nc1cccc(-c2ccc(C(=O)N3CCN4CCC3CC4)o2)c1
143 to 145 | CC(CO)(Sc1cc2cc(O)ccc2[nH]1)c1ccccc1 (configuration not stated)
192 to 194 | COc1cc(C(=O)O)ccc1Oc1ccccc1N
45 to 48 | OCCCc1ccccc1OCc1ccccc1
172 to 174 | Cn1ccnc1COc1ccccc1[N+](=O)[O-]
162 | CCCCc1nc2c(C)nc(C)cc2n1-c1ccc(CCOC(=O)NS(=O)(=O)c2ccc(C)cc2)cc1
157 to 158 | NC(=O)Cc1ccc2c(c1)C(=O)c1ccccc1CO2
173 to 175 | O=C1c2ccccc2C(=O)N1Cc1cc(Cl)ccc1OCc1cccnc1
148 to 149 | O=C(NCCCO)c1cccc(-c2cccn3c(=O)n(Cc4cccc(C(F)(F)F)c4)nc23)c1
139 to 141 | O=[N+]([O-])c1ccc(-c2nnn(Cc3ccccc3)n2)cc1
60 | CCOC(=O)CCc1nc(-c2ccccc2)cc2ccccc12
104 to 105 | COc1ccccc1[C@H](c1cccc2ccccc12)[C@@](C)(C#N)C(=O)N1CCN(c2cccc(C)c2)CC1
128 to 130 | N#CC(=C(Cl)c1ccc(Br)cc1)c1ccccc1
131 | CCc1nnc(-c2ccc(N(C)C)c(C)c2)n1-c1ccc(OC)cc1
50 to 51 | CCOc1cc(Oc2ccc(C(F)(F)F)cn2)ccc1CCCO
118 to 119 | O=C(O)CCc1cn(Cc2ccc(OCc3csc(-c4cccnc4)n3)cc2)cc1-c1ccccc1
175 to 178 | COCCOc1ccc(CCNC(=O)C=Cc2ccc(OC)cc2OC)cc1S(N)(=O)=O
164 to 165 | CCCCNC(=O)Nc1ccc(-c2ccncc2)c(C)n1
33 to 35 | CN(C)CCCCCCCCCCOc1ccc(C(=O)c2ccccc2)cc1

Further lines, the compound ahead of its results:

SMILES | melting point [°C]
COCCC(=O)N[C@H]1CC[C@H](CCN2CCC(c3ccc(F)c4occc34)CC2)CC1 | 177
CS(=O)CCN1C(=O)CN=C(c2ccccc2)c2cc(Cl)ccc21 (configuration not stated) | 166 to 167
CC(C)(NCC(O)Cn1ccnc1)c1ccc(Cl)cc1 (configuration not stated) | 89 to 91
CCOC(C)OCc1ccccc1C(=NO)C(=O)NC (configuration not stated) | 85 to 87
COc1cccc2c(=O)[nH]c(C)nc12 | 261 to 262
O=C1Nc2ccc(O)cc2Sc2ccccc21 | 265 to 267
O=c1c2ccccc2sc2ccc(S(=O)(=O)C(F)(F)F)cc12 | 163 to 164
NC(=O)c1cnc2n(c1=O)CCC2 | 293
Cc1cc(O)c([N+](=O)[O-])c(=O)n1CC(=O)O | 205
CCOC(=O)C1CC(O)c2c(C)c(O)c(C)c(C)c2O1 (configuration not stated) | 138 to 144
CNC1([C@@H]2CCN(c3ccc4c(=O)c(C(=O)O)cn([C@@H]5C[C@@H]5F)c4c3C)C2)CC1 | 223 to 224
CC1(C)OC(c2ccc(S(C)(=O)=O)c(F)c2)=C(c2ccc(N)cc2)C1=O | 199 to 200
Fc1ccc(-c2cc(C(F)(F)F)n3ncc(-c4ccccn4)c3n2)cc1Cl | 197
O=C1C2=C(SCCO2)C(O)N1c1ccc2ccc(Cl)cc2n1 (configuration not stated) | 270
COc1ccc2cc3c(Nc4ccc(Cl)cc4Cl)c(C#N)cnc3cc2c1 | > 260
COc1cc(OC)c(C(=O)CCCCCl)c(OC)c1 | 53 to 55
CCCCCC(CC(=O)Nc1cc(C(N)=O)ccc1C(C)(C)C)c1cc(F)c(OC)cc1OC (configuration not stated) | 150
Cc1nc(N)nc(N)c1N1CCN(c2ccc(C(=O)NCC(=O)O)cc2)CC1 | > 310
O=C1c2ccccc2C(=O)N1CC1CCc2cccnc2O1 (configuration not stated) | 152 to 158
S=C(Nc1ccc(Cl)c(Cl)c1)NC1CCCCC1 | 159 to 162
CCOC(=O)Cn1c(=O)c(=O)[nH]c2cc(C(F)(F)F)c(N)cc21 | > 250
CCNC(=O)CCCNC(=O)CCCNC(=O)OC(C)(C)C | 134 to 135
Cc1noc(=O)n1C/C(F)=C\CCI | 58.1 to 58.6
CC(C)NC(=O)CN1CCN(CC2CSC3=C(O2)c2ccccc2C(=O)C3=O)CC1 (configuration not stated) | 85 to 87
COc1cc2c(Nc3cccc(Cl)c3F)ncnc2cc1O[C@H]1CCCN(C(=O)CN2CCN(C)CC2)C1 | 120 to 121
O=S1(=O)N=CN(C2CC2)c2ccc(F)c(Cl)c21 | 260 to 263
COC12c3ccc(Cl)cc3CC1SC(=CN)N2C (configuration not stated) | 65 to 70

SMILES | melting point [°C]
Cc1cncc(-c2nc(C(F)(F)F)cn2-c2ccc(S(N)(=O)=O)cc2)c1 | 242 to 243
O=C(Nc1ccc(S(=O)(=O)C(F)(F)F)cc1Cl)c1c(O)c(C23CC4CC(CC(C4)C2)C3)cc2c1CCC2 | 218 to 219
CCOC(=O)C1=Cc2cccc(NS(=O)(=O)N(C)C)c2OCC1 | 93 to 96
O=C(O)c1ccc(F)c2c1OCC=C2 | 187 to 189
NC(=O)c1ccc(F)c2c1C=CCO2 | 189 to 190
COC(=O)C(NC(=O)c1ccc(Cl)cc1)C(=O)OC | 146 to 148
CNc1nc(NS(=O)(=O)c2ccc(N)cc2)cc(N2CCC2)n1 | 295 to 296
Oc1ccc(Cl)c(-n2ccnc2)c1 | 204 to 205
CC(=O)OC1CSC(Oc2cncc(-c3cc4ccccc4o3)c2)C(OC(C)=O)C1OC(C)=O (configuration not stated) | 125
CC1CNc2cc(C3=NNC(=O)CC3)ccc2O1 (configuration not stated) | 294 to 296
COc1cc2ncnc(N3CCN(C(=O)Nc4ccncc4)CC3)c2cc1OC | 141 to 143
O=C1CCCc2c1n(CCBr)c1ccc(Cl)cc21 | 121
Cc1ccc(S(=O)(=O)C(C)(C)C(=O)C2CCCCC2)cc1 | 123 to 124
COC12CC(C)(C)C(O1)C(OC(=O)c1ccc(N)cc1)C=C2C (configuration not stated) | 118 to 119
COc1cc(C=O)cc(OC)c1OC1OC(CO)C(O)C(O)C1NC(C)=O (configuration not stated) | 186 to 189
O=C1N(CC2CCCO2)c2c(F)cccc2C12COc1cc3c(cc12)CCO3 (configuration not stated) | 169 to 170
CC(=O)OC1CCC2(C)C(=CCC3C2CCC2(C)C(OC(C)=O)CCC32)C1 (configuration not stated) | 163 to 165
Cc1cnc2cc(N)ccc2n1 | 163 to 164
COC(=O)c1ccc(NC(=O)c2cc(C(C)C)c(C(C)C)o2)cc1O | 156 to 157
CCCCCC1COc2cc(CCC3=Cc4cc(F)cc(F)c4OC3)c(F)cc2C1 (configuration not stated) | 84
COC(=O)c1cc2cccc(C=O)c2[nH]1 | 87
CCN1CCN(CC)C2SC(=C(C(=O)OC(C)C)C(=O)OC(C)C)SC21 (configuration not stated) | 84 to 86
O=C(N[C@H]1CC[C@H](CCN2CCC(c3cccc4c3CCO4)CC2)CC1)c1ccc(N2CCOCC2)cc1 | 247
CCOC(=O)COc1ccc(O)c(Cl)c1 | 80 to 82
c1ccc2nn(-c3cscn3)cc2c1 | 146 to 147
CCNC(=O)C1CCCN1C(=O)C(C)NC(=O)C(C)NC(=O)CCC(=O)O (stereo not drawn) (Suc-Ala-Ala-Pro-NHEt; configuration not given here) | 185 to 186
